Patent US20120130146A1, “CONTINUOUS ADMINISTRATION OF CILENGITIDE IN CANCER TREATMENTS” (Merck Patent GmbH, priority 2009, published 2012)

Key:
[1] = tested on: human umbilical vein endothelial cells (HUVECs); test: Growth (Alamar Blue) assay on HUVEC, Example 5; assay type: cell-based; conditions: Homo sapiens
Description: (§1) The methods established and described in detail previously (Goodman and Hahn a; b) were used to measure the effect of combinations of integrin inhibitors and chemotherapeutics on carcinoma cell and human endothelial cell proliferation.
(§2) Points were run in duplicate or in triplicate. Reagent blanks, containing media plus Alamar Blue without cells, were run on each plate. Blank values were subtracted from test values and were routinely 5-10% of uninhibited control values.
(§3) 5.5 Methods of Evaluation and Statistics Chemotherapeutic agents and αv-integrin blockers were serially diluted alone or together (combination therapy). In some assays the chemotherapeutic agent was serially diluted alone or in combination with of alpha-v integrin blocker. Growth inhibition curves were plotted and a shift of the combination therapy curve to lower concentrations in relation to the single agent curves was interpreted as an additional effect, produced by combination versus monotherapy.
(§4) The αv-integrin competitive inhibitor Cilengitide (EMD 121974) was tested alone and in combination with vinorelbine in a serum growth stimulation assay using human carcinoma cells or human umbilical vein endothelial cells (HUVECs). In these assays cells are cultured in serum, or in an endothelial growth stimulation medium (Goodman & Hahn).

A549 = test: Serum growth stimulation assay on A549 NSCLC cells, Example 5; assay type: cell-based, human; conditions: for EC50: Homo sapiens, NSCLC A549, chemotherapeutic alone or + Cilengitide
Description: as §1, §2, §3, §4

A498 = test: Cell proliferation assay on A498 renal carcinoma cells; assay type: cell-based, human; conditions: for EC50: Homo sapiens, Renal A498, chemotherapeutic alone or + Cilengitide
Description: as §1, §2, §3, §4
Cilengitide concentration is 2 μM (constant).

Detroit 562 = test: Cell proliferation assay on SCCHN Detroit 562 cells; assay type: cell-based, human
[2] = in combination with 2 μM Cilengitide

EC50 (A549) [nM] | EC50 (A498) [nM] | Compound | IC50 ([1]; agent alone) [nM] | IC50 [1, 2] [nM] | enhancement of growth inhibition by the presence of cilengitide (A549; A549) | enhancement of growth inhibition by the presence of cilengitide (A498; A498) | enhancement of growth inhibition by the presence of cilengitide (Detroit 562)
8 | 100 | CC(=O)O[C@H]1C(=O)[C@@]2(C)[C@H]([C@H](OC(=O)c3ccccc3)[C@]3(O)C[C@H](OC(=O)[C@H](O)[C@@H](NC(=O)c4ccccc4)c4ccccc4)C(C)=C1C3(C)C)[C@]1(OC(C)=O)CO[C@@H]1C[C@@H]2O [Paclitaxel] | 10 | 0.05 | – | – | –
8 | 60 | CCC1=C[C@@H]2CN(C1)Cc1c([nH]c3ccccc13)[C@@](C(=O)OC)(c1cc3c(cc1OC)N(C)[C@H]1[C@@](O)(C(=O)OC)[C@H](OC(C)=O)[C@]4(CC)C=CCN5CC[C@]31[C@@H]54)C2 [Vinorelbine] | 20 | 0.8 | synergistically enhanced | synergistically enhanced | synergistically enhanced
